The values below come from PubChem BioAssay (NCI).

What all share (experiment): growth of human tumour cells (NCI), 48 h
The subject of assay [1] is CAKI-1 renal.
In assay [2] the test system is HCT-116 colon.
The subject of assay [3] is UACC-257 melanoma.
Assay [4] deals with HT29 colon.
Assay [5] relates to NCI-H226 lung.
In assay [6] the test system is LOX IMVI melanoma.
Assay [7] relates to SK-MEL-2 melanoma.
The subject of assay [8] is SK-MEL-5 melanoma.
The test system of assay [9] is TK-10 renal.
In assay [10] the test system is MALME-3M melanoma.

The structures appear in SMILES notation.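 Step 1: Grow cells in 96-well plates. Step 2: Expose to compound for 48 hours at 5 concentrations. Step 3: Interpolate endpoints linearly; if unreached, use highest concentration. GI50 = concentration required for 50% inhibition of growth. TGI is the concentration that stops growth completely.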

As for `COC(=O)[C@]1(C)CCC[C@]2(C)[C@@H]1CCC13C[C@@H](C=CO1)[C@@H](C)CC32O` (some centres not stated), the GI50 in assay [1] is 55.2 µM; in [2] it was 7.89 µM; in assay [3], 70 µM; in [4], 11 µM; in assay [5], above 100 µM; in [6], above 100 µM. Further, the GI50 in assay [7] is above 100 µM; in assay [8], 34 µM. Also, the TGI in assay [1], in assay [2], in assay [3], in assay [4], in assay [5] and in assay [6] was above 100 µM throughout. Moreover, the TGI in assay [7] and in [8] was above 100 µM in each case.
As for `COc1cc(/C=C\c2cc(OC)c(OC)c(OC)c2)cc(NS(=O)(=O)c2ccc(Cl)cc2)c1OC`, the GI50 in assay [1] is 0.374 µM; in [2], 0.469 µM; in [3], 12.5 µM; in assay [4], 0.348 µM; in assay [5], 13.5 µM; in assay [6], 0.566 µM. Moreover, the GI50 in [7] is 0.613 µM; in assay [8] it was 0.297 µM; in assay [9], 0.779 µM. The TGI in [1] is 50 µM; in [2] it was above 100 µM; in assay [3] it was above 100 µM; in assay [4], 10.2 µM; in assay [5] it was above 100 µM; in assay [6], above 100 µM. The TGI came out at 50.7 µM in [7], 1.17 µM in assay [8] and 99.6 µM in assay [9].
With `COC(=O)c1sc(=NC(=S)N2CCCCC2)sc1C(=O)OC`, the TGI in assay [1], in [2], in assay [3], in assay [5], in assay [7] and in assay [10] was above 100 µM throughout. Also, the TGI in assay [8] and in assay [9] was above 100 µM in each case.
Take `NNC(=O)N/N=C1\CN(c2ccc(Cl)cc2Cl)C(=O)C(=O)C1c1nc2ccccc2o1` (configuration not stated): the TGI in assay [1], in [2], in assay [3], in [4], in [5] and in assay [7] was above 100 µM in each case. Further, the TGI in assay [10] and in [8] was above 100 µM throughout.
On to `CCOc1ccccc1NC(=O)C1=C(C)NC(C)=C(C(=O)Nc2ccccc2OCC)C1c1ccc([N+](=O)[O-])cc1`, for which the TGI in assay [1], in [2], in [3], in assay [4], in [5] and in assay [7] was above 100 µM in each case. Besides, the TGI in assay [10] was above 100 µM.
Consider `OCC#Cc1ccccc1C#Cc1ccc(C#Cc2ccccc2)cc1`, for which the GI50 in assay [1] was 44.5 µM; in assay [2], 16.6 µM; in assay [3], 27.6 µM; in assay [4], 12.7 µM; in [5] it was 18.4 µM; in [6] it was 24.6 µM. Further, the figures for the GI50 in assay [7], in [8] and in [9] were 51.4 µM, 11.8 µM and 13 µM, respectively. Also, the TGI in [1] is above 100 µM; in assay [2], 32.3 µM; in assay [3], 69.8 µM; in assay [4], 33.5 µM; in assay [5], 43 µM; in [6] it was above 100 µM. For the same compound, the figures for the TGI in [7], in assay [8] and in assay [9] were above 100 µM, 25.8 µM and 32.9 µM, respectively.
Turning to `C=C1CC/C=C(\C)CC[C@H](C(=C)C)[C@@H](O)/C=C(/CO)CCC1O` (some centres not stated), the GI50 in assay [1] is 81.4 µM; in [2], 35.4 µM; in assay [3] it was above 100 µM; in assay [4], above 100 µM; in assay [5], above 100 µM; in assay [6] it was 50.4 µM. The GI50 in [7] is above 100 µM; in [8], 35.1 µM; in assay [9] it was 17.4 µM. Also, the TGI in assay [1], in assay [2], in assay [3], in assay [4], in assay [5] and in assay [6] was above 100 µM in each case. In addition, the TGI is above 100 µM in assay [7], above 100 µM in assay [8] and 68.7 µM in [9].
As to `COCC1N=C(c2cc(OC)c(OC)c(OC)c2-c2cc3c(cc2[C@H](C)O)OCO3)O[C@H]1c1ccccc1` (some centres not stated), the TGI in [2], in [4], in assay [5], in assay [6], in assay [7] and in [8] was above 100 µM each time. The same compound had a TGI in [9] above 100 µM.
Turning to `c1ccc2c3c([nH]c2c1)C1C2CCCCN2C(c2ccncc2)N1CC3` (configuration not stated), the TGI in assay [1], in assay [2], in assay [3], in assay [4], in assay [6] and in assay [7] was above 100 µM each time. The TGI in [10] and in assay [8] was above 100 µM in each case.
For the compound `Clc1ccc2c(NCCCN3CCN(c4nc(N5CCOCC5)nc5ccccc45)CC3)ccnc2c1`, the GI50 in assay [2] was 1.25 µM; in [3] it was 1.77 µM; in assay [4], 1.62 µM; in assay [6], 1.98 µM; in [7] it was 1.87 µM; in [10] it was 1.9 µM. Further, the GI50 in assay [8] is 1.73 µM; in assay [9], 2.04 µM. Also, the TGI in assay [2] is 2.59 µM; in assay [3], 3.42 µM; in [4], 3.71 µM; in assay [6] it was 3.97 µM; in assay [7], 3.49 µM; in assay [10] it was 3.49 µM. The TGI stood at 3.12 µM in assay [8] and 4.56 µM in assay [9].
On to `C=CCN=C(N/N=C/c1ccc([N+](=O)[O-])o1)NS(=O)(=O)c1cc(C(=O)Nc2ccccc2)c(Cl)cc1SCC(N)=O`, for which the GI50 in [1] was above 100 µM; in assay [2], 20.2 µM; in assay [3] it was 19.5 µM; in [4], 40.8 µM; in assay [5] it was 30.8 µM; in assay [6], 17 µM. The GI50 was 16.1 µM in assay [7], 5.45 µM in assay [8] and 51.8 µM in assay [9]. Besides, the TGI is above 100 µM in assay [1]; 49 µM in [2]; 49 µM in assay [3]; above 100 µM in assay [4]; above 100 µM in [5]; 42.1 µM in assay [6]. The values for the TGI in [7], in assay [8] and in assay [9] were 45.3 µM, 18.3 µM and above 100 µM, respectively.
